Source: patent EP0434038A1, “Fused imidazole derivatives, their production and use” (Takeda Chemical Industries, Ltd., priority 1989, dated 1991)

Assays:
[1] = system: Jcl : SD rats; experiment: inhibition of the pressor response to angiotensin II in rats, oral; format: in vivo; details: Rattus norvegicus, p.o.
Excerpt: Inhibitory effect of the compound of the present invention on pressor action of A-II
Jcl : SD rats (9 week old, male) were used. On the day previous to the experiment, these animals were applied with cannulation into the femoral artery and vein under anesthesia with pentobarbital Na. The animals were fasted but allowed to access freely to drinking water until the experiment was started. Just on the day of conducting the experiment, the artery cannula was connected with a blood-pressure transducer, and the average blood pressure was recorded by means of polygraph. Before administration of the drug, the pressor action due to intravenous administration of A-II (100 ng/kg) as the control was measured. The drugs were orally administered, and then, at each point of the measurement, A-II was administered intravenously, and the pressor action was similarly measured. By comparing the pressor action before and after administration of the drug, the percent inhibition by the drug on A-II-induced pressor action was evaluated.

[2] = molecular target: T1, A-II-receptor (Bos taurus, UniProt P25104); experiment: displacement of 125I-angiotensin II from bovine adrenal cortex membranes; format: binding, membrane fraction; details: for inhibition at 1 µM: read-out: Radioreceptor Assay (%) / 1X10⁻⁶M; for inhibition at 0.1 µM: read-out: Radioreceptor Assay (%) / 1X10⁻⁷M
T1 construct: An A-II-receptor was prepared from the membrane fraction of bovine adrenal cortex
T1 sequence (P25104 1-359): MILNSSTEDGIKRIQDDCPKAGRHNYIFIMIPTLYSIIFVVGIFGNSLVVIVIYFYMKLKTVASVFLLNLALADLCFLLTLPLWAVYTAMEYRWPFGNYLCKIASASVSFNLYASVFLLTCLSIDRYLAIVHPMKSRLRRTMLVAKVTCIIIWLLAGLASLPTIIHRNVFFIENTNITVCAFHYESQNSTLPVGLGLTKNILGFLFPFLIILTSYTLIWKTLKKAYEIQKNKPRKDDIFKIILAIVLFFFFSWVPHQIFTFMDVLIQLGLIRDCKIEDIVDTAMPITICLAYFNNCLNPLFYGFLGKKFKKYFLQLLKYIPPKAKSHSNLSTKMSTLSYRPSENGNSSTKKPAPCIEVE
Experimental: Inhibition of binding of angiotensin-II to angiotensin receptor
An experiment of inhibition on the binding of angiotensin-II (A-II) to A-II-receptor was conducted by modifying the method of Douglas et al. [Endocrinology, 102, 685-696 (1978)]. An A-II-receptor was prepared from the membrane fraction of bovine adrenal cortex.
The compound of the present invention (10⁻⁷M or 10⁻⁶M ) and ¹²⁵I-A-II (1.85 kBq/50 µl) were added to the receptor membrane fraction, and the mixture was incubated at room temperature for one hour. The receptor-bound and free ¹²⁵I-A-II were separated through a filter (Whatman GF/B filter), and the radioactivity of ¹²⁵I-A-II bound to the receptor was measured.

Structure (SMILES)	inhibition at 1 µM [2]	inhibition at 0.1 µM [2]	inhibition at 10 mg/kg ([1]; 10 mg/kg)	inhibition at 30 mg/kg [1]
CCCCc1nc2ncccc2n1Cc1ccc(-c2ccccc2-c2nnn[nH]2)cc1 [compound 4, 0.4 H2O]	48%	5%	–	–
CCCCc1nc2nccnc2n1Cc1ccc(-c2ccccc2-c2nnn[nH]2)cc1 [compound 6, 2-Butyl-1-[[2'-(1H-tetrazol-5-yl)biphenyl-4-yl]methyl]imidazo[4,5-b]pyrazine, 0.4 H2O]	81%	43%	–	–
CCc1nc2cccnc2n1Cc1ccc(-c2ccccc2-c2nnn[nH]2)cc1 [compound 9, 2-Ethyl-3-[[2'-(1H-tetrazol-5-yl)biphenyl-4-yl]methyl]imidazo[4,5-b]pyridine, 1/2 EtOAc]	84%	50%	–	> 70%
CCCCc1nc2cnccc2n1Cc1ccc(-c2ccccc2-c2nnn[nH]2)cc1 [compound 13, 2-Butyl-1-[[2'-(1H-tetrazol-5-yl)biphenyl]-methyl]imidazo[4,5-c]pyridine, 0.2 H2O]	44%	1%	–	–
CCCCc1nc2ccncc2n1Cc1ccc(-c2ccccc2-c2nnn[nH]2)cc1 [compound 14, 2-Butyl-3-[[2'-(1H-tetrazol-5-yl)biphenyl]-methyl]imidazo[4,5-c]pyridine, 0.2 H2O]	56%	9%	–	–
CCCc1nc2ccc(OC)nc2n1Cc1ccc(-c2ccccc2-c2nnn[nH]2)cc1 [compound 23, 5-Methoxy-2-propyl-3-[[2'-(1H-tetrazol-5-yl)-biphenyl-4-yl]methyl]imidazo[4,5-b]pyridine, 0.3 H2O]	75%	32%	–	–

Now from value to compound, other results behind:

inhibition at 1 µM [2]	inhibition at 0.1 µM [2]	Structure (SMILES)	inhibition at 10 mg/kg ([1]; 10 mg/kg)	inhibition at 30 mg/kg [1]
92%	63%	CCCCc1nc2cccnc2n1Cc1ccc(-c2ccccc2-c2nnn[nH]2)cc1 [compound 3, 2-Butyl-3-[2'-[(1H-tetrazol-5-yl)biphenyl-4-yl]methyl]imidazo[4,5-b]pyridine]	50 to 70%	> 70%
75%	32%	CCCCc1nc2cc(C)cnc2n1Cc1ccc(-c2ccccc2-c2nnn[nH]2)cc1 [compound 15, 2-Butyl-6-methyl-3-[[2'-(1H-tetrazol-5-yl)-biphenyl-4-yl]methyl]imidazo[5,4-b]pyridine, 0.3 H2O]	–	–
32%	0%	CCCCc1nc2ncc(C)cc2n1Cc1ccc(-c2ccccc2-c2nnn[nH]2)cc1 [compound 16, 2-Butyl-6-methyl-1-[[2'-(1H-tetrazol-5-yl)-biphenyl-4-yl]methyl]imidazo[5,4-b]pyridine, 0.4 H2O]	–	–
9%	0%	CCCCc1nc2cc(Br)c(C)nc2n1Cc1ccc(-c2ccccc2-c2nnn[nH]2)cc1 [compound 24, 6-Bromo-2-butyl-5-methyl-3-[[2'-(1H-tetrazol-5-yl)biphenyl-4-yl]methyl]imidazo[5,4-b]pyridine]	–	–
